Measurements from paper PMC7663272, “Discovery of Tricyclic Pyranochromenone as Novel Bruton’s Tyrosine Kinase Inhibitors with In Vivo Antirheumatic Activity” (International Journal of Molecular Sciences, 2020).
Entries after “also recorded” stand apart in the source; their conditions may differ.

Tests used:
BTK-wt = biological target: T1, BTK-wt (Homo sapiens, UniProt Q06187); assay: HotSpot kinase enzymatic assay, BTK-wt; assay type: biochemical; conditions: for inhibition at 10 µM: vs negative control (DMSO), mean of two separate experiments, NA = not active at 10 µM, read-out: % Inhibition (10 µM) BTK-wt; for IC50: HotSpot assay, 10 μM ATP, GraphPad Prism
T1 construct: purchased Reaction Biology Corporation
Protocol: (§1) Kinase enzymatic assays for BTK, BMX, TXK, TEC, ITK, EGFR, ERBB2, ERBB4, and JAK3 were performed at Reaction Biology Corporation (www.reactionbiology.com, Malvern, PA, USA) using the HotSpot assay platform. Briefly, specific kinase/substrate pairs and the required cofactors were prepared in a reaction buffer comprising 20 mM HEPES (pH 7.5), 10 mM MgCl2, 1 mM EGTA, 0.02% Brij35, 0.02 mg/mL BSA, 0.1 mM Na3VO4, 2 mM DTT, and 1% DMSO. The compounds were added to the reaction mixture and allowed to incubate. Approximately 20 min later, a mixture of ATP (Sigma-Aldrich, St. Louis, MO, USA) and ^33P ATP (PerkinElmer, Waltham, MA, USA) was added to the reaction mixture at a final concentration of 10 μM. The reactions were performed at room temperature for 120 min; subsequently, the reactions were spotted onto P81 ion exchange filter papers (Whatman Inc., Maidstone, UK). […] GraphPad Prism software was used to obtain the IC50 values and perform curve fitting.

[1] = system: collagen-induced arthritis (CIA); assay: Murine model of collagen-induced arthritis (CIA); assay type: in vivo; conditions: mice, 0.3 mg/kg, daily oral; t-test
Protocol: The in vivo efficacy of compound 8 was evaluated in a murine inflammatory model of collagen-induced arthritis (CIA). The study included four groups: a vehicle-treated control group and three treatment groups. The treatment groups comprised a dexamethasone-treated group, in which dexamethasone served as the positive control, and two treatment groups, in which animals were treated with compound 8 at doses of 10 and 50 mg/kg. Compound 8 was administered once daily for 15 days by oral gavage, and the in vivo efficacy was evaluated by measuring the clinical score and foot volume. […] There were no significant changes in the body weights of animals in all the treatment groups (data not shown) during treatment.
The animal study was approved by the Institutional Animal Care and Use Committee (IACUC) of the Korea Research Institute of Bioscience and Biotechnology on March 15, 2017, under approval number KRIBB-AEC-17090. Male DBA1/JNCrli mice (7 weeks old) were purchased from Japan CRL, Inc. The mice were housed in specific pathogen-free (SPF) conditions and were allowed ad libitum access to food and water. After 7 days of acclimatization, the mice were immunized with 0.05 mL of a type II collagen emulsion (Hooke Kit^TM Chicken Collagen, Cat. No. EK-0210 from Hooke) and Freund’s complete adjuvant by subcutaneous injection at 1.5 cm distal from the base of the tail. After 21 days, the immunized mice were administered a booster injection with 0.05 mL of a type II collagen emulsion (Hooke Kit^TM Chicken Collagen, Cat. No. EK-0211 from Hooke) and Freund’s incomplete adjuvant. The emulsions were prepared according to the manufacturer’s instructions. On day 21, the mice with CIA were randomized into four groups. The animals in the four groups were administered either 0.3 mg/kg dexamethasone (n = 5), 10 mg/kg compound 8 (n = 5), 50 mg/kg compound 8 (n = 5), or vehicle (n = 5), once a day, for […], orally. The vehicle, in which all test compounds were suspended, comprised DMAC (10%), Tween 80 (10%), and DW (80%). Clinical arthritis scores and body weights were assessed three times per week for 15 days. The paw volumes were measured using a LE7500 plethysmometer (Panlab, Barcelona, Spain) on days 0 and 42.

BTK-C481S = biological target: T2, BTK-C481S (Homo sapiens, UniProt Q06187, C481S); assay: HotSpot kinase enzymatic assay, mutant BTK; assay type: biochemical; conditions: vs negative control (DMSO), mean of two separate experiments
T2 construct: purchased Reaction Biology Corporation
Source text: To confirm the role of the electrophilic warhead groups, the acryloyl group of compound 8 was replaced with methylacryloyl (11) and propionyl (12) groups, which are less electrophilic or lack an electrophilic feature. […] The significant difference in the inhibitory activity of compounds 8 and 12 could explain the critical role of the acryloyl moiety in potentiating the BTK inhibitory activity of compound 8. […] It was also confirmed by comparison of the inhibitory activity of the representative compounds (8–10) with electrophilic warheads against wild-type BTK (BTK-wt) and mutant BTK (BTK-C481S).
as §1, with “UK). Any unbound phosphate was removed by thoroughly washing the filter papers with 0.75% phosphoric acid.” for “UK).”

BTK = system: BTK; set-up: method as in not given; conditions: reported tricyclic BTK inhibitors, printed in Figure 2b; ref not given; cited from earlier work

T1 sequence (Q06187 whole entry): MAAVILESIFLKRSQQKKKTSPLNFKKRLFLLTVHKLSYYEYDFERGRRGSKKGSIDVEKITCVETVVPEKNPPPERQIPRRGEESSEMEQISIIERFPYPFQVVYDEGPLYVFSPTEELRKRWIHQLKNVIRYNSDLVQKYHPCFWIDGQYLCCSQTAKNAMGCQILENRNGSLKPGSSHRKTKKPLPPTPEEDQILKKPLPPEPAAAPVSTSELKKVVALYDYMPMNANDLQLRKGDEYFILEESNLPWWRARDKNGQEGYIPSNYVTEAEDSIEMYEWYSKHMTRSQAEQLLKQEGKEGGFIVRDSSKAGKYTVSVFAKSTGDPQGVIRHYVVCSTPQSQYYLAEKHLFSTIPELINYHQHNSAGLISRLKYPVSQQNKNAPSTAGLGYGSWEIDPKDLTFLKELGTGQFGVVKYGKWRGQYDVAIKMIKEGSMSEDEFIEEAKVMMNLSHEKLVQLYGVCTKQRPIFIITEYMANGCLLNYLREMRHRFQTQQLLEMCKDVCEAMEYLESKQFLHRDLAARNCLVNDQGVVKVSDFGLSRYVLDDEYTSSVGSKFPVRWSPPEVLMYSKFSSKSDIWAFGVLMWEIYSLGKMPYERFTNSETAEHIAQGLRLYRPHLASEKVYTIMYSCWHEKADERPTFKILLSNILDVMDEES
T2 sequence (Q06187 whole entry C481S): as the sequence (Q06187 whole entry) above, with C481S counted along it

Compound	BTK inhibitory activity (in words) (BTK-wt)	inhibition at 10 µM (BTK-wt) [%]	IC50 (BTK-wt) [µM]	inhibition at 10 µM (BTK-C481S) [%]	clinical scores vs control [1]	IC50 (BTK) [µM]
C[C@@H]1C[C@H]2[C@@H]3CCC4=CC(=O)C=C[C@]4(C)[C@@]3(F)[C@@H](O)C[C@]2(C)[C@@]1(O)C(=O)CO [dexamethasone, reference compound]	–	–	–	–	differed significantly from those with the control	–
CCC(=O)O[C@H]1Cc2cc3ccc(=O)oc3cc2OC1(C)C [Compound 12, (7S)-(+)-Propionic acid, 8,8-dimethyl-2-oxo-6,7-dihydro-2H,8H-pyrano [3,2-g]chromen-7-ylester]	completely diminished; also recorded: BTK inhibitory activity was lost	–	> 10	–	–	–
CC1(C)Oc2cc3oc(=O)ccc3cc2C[C@@H]1OC(=O)/C=C/CBr [Compound 4]	minimal inhibitory activity	20.3	> 10	–	–	–
C/C=C/C(=O)O[C@H]1Cc2cc3ccc(=O)oc3cc2OC1(C)C [Compound 3, (7S)-(+)-But-2-enoic acid, 8,8-dimethyl-2-oxo-6,7-dihydro-2H,8H-pyrano[3,2-g]chromen-7-ylester]	minimal inhibitory activity	11.3	> 10	–	–	–
Cc1c(-c2c(F)cc(C(N)=O)c3[nH]c4c(c23)CC[C@H](C(C)(C)O)C4)cccc1-n1c(=O)c2cccc(F)c2n(C)c1=O [BMS-986142]	–	–	–	–	–	0.0005

Further lines, with some results ahead:

BTK inhibitory activity (in words) (BTK-wt)	inhibition at 10 µM (BTK-wt) [%]	IC50 (BTK-wt) [µM]	inhibition at 10 µM (BTK-C481S) [%]	Compound	clinical scores vs control [1]	IC50 (BTK) [µM]
inactive	7.7	> 10	–	CC1(C)Oc2cc3oc(=O)ccc3cc2C[C@@H]1O [Compound 2, S-(+)-Decursinol]	–	–
completely diminished	–	> 10	–	C=C(C)C(=O)O[C@H]1Cc2cc3ccc(=O)oc3cc2OC1(C)C [Compound 11, (7S)-(+)-2-Methylacrylic acid, 8,8-dimethyl-2-oxo-6,7-dihydro-2H,8H-pyrano[3,2-g]chromen-7-yl ester]	–	–
weak inhibitory activity	32	> 10	–	CC(C)=CC(=O)O[C@H]1Cc2cc3ccc(=O)oc3cc2OC1(C)C [Compound 1, Decursin]	–	–
no BTK inhibitory activity	–	> 10	–	CC1(C)Oc2cc3oc(=O)ccc3cc2C[C@@H]1OC(=O)/C=C/c1ccccc1 [Compound 5, (7S)-(+)-trans-Cinnamic acid, 8,8-dimethyl-2-oxo-6,7-dihydro-2H,8H-pyrano[3,2-g]chromen-7-yl ester]	–	–
–	99.2	0.5	18.6	CC1(C)Oc2cc3oc(=O)ccc3cc2C[C@@H]1OC(=O)CCl [Compound 10, (7S)-(+)-Chloroacetic acid, 8,8-dimethyl-2-oxo-6,7-dihydro-2H,8H-pyrano [3,2-g]chromen-7-ylester]	–	–
no BTK inhibitory activity	–	> 10	–	CC1(C)Oc2cc3oc(=O)ccc3cc2C[C@@H]1OC(=O)/C=C/c1ccc(F)cc1 [Compound 6, (7S)-(+)-trans-4-Fluorocinnamic acid, 8,8-dimethyl-2-oxo-6,7-dihydro-2H,8H-pyrano[3,2-g]chromen-7-yl ester]	–	–
relatively low BTK inhibitory activity	34.5	7	–	CC#CC(=O)O[C@H]1Cc2cc3ccc(=O)oc3cc2OC1(C)C [Compound 7, (7S)-(+)-But-2-yonic acid, 8,8-dimethyl-2-oxo-6,7-dihydro-2H,8H-pyrano[3,2-g]chromen-7-ylester]	–	–
–	95.8	0.9	15.8	C=CS(=O)(=O)O[C@H]1Cc2cc3ccc(=O)oc3cc2OC1(C)C [Compound 9, (7S)-(+)-Ethenesulfonic acid, 8,8-dimethyl-2-oxo-6,7-dihydro-2H,8H-pyrano [3,2-g]chromen-7-yl ester]	–	–
